For test [1], the target named is T1, Electric eel acetylcholinesterase (AChE) (Electrophorus electricus, UniProt O42275).
T1 construct: purchased Sigma-Aldrich Co. (St. Louis, MO, USA)
Briefly: biochemical. Particulars: for IC50: electric eel AChE, mean ± SEM of triplicate experiments; for SI, selective index (BChE/AChE): calculated from IC50 of BChE/AChE. From the text: (§1) Electric eel acetylcholinesterase (AChE, EC3.1.1.7), horse serum butyrylcholinesterase (BChE, EC 3.1.1.8), acetylthiocholine iodide (ACh), butyrylthioline chloride (BCh), 5,5′-dithobis [2-nitrobenzoic acid] […] The BACE1 FREF assay kit (β-secretase) was purchased from Pan Vera Co. (Madison, WI, USA). ONOO^− was purchased from Molecular Probes Cayman (Ann Arbor, MI, USA). All other chemicals and solvents used were purchased from E. Merck, Fluka, or Sigma- Aldrich, unless otherwise stated.
The inhibitory activity of the isolated coumarins toward ChE was measured using the spectrophotometric method developed by Ellman et al.. ACh and BCh were used as substrates to assay the inhibition of AChE and BChE, respectively. Each reaction mixture consisted of 140 µL sodium phosphate buffer (pH 8.0), 20 µL of test sample solution, and 20 µL of either AChE or BChE solution, which were then combined and incubated for 15 min at room temperature. […] Reactions were initiated upon addition of 10 µL of DTNB and 10 µL of either ACh or BCh. Enzymatic hydrolysis, mediated by AChE or BChE, was monitored according to the formation of yellow 5-thio-2-nitrobenzoate anions at 412 nm for 15 min, which were generated by the reaction of DTNB with thiocholine released from ACh or BCh. All reactions were performed in 96-well plates in triplicate, and recorded using a microplate spectrophotometer (Molecular Devices, Sunnyvale, CA, USA).

Test [2] deals with T2, human recombinant BACE1 (Homo sapiens, UniProt P56817).
T2 construct: purchased PanVera Co. (Madison, WI, USA)
The experiment in a line: In vitro BACE1 FRET enzyme assay. In kind it is biochemical. The method, then: A BACE1 fluorescence resonance energy transfer (FRET) assay kit (β-secretase, human recombinant) was purchased from PanVera Co. (Madison, WI, USA). The assay was carried out according to the provided manual with slight modifications, as described in a previous study.

For test [3], the target named is T3, horse serum butyrylcholinesterase (BChE) (Equus caballus, UniProt P81908).
T3 construct: horse serum butyrylcholinesterase (BChE, EC 3.1.1.8); purchased Sigma-Aldrich Co. (St. Louis, MO, USA); host or cells: horse serum
The experiment in a line: In vitro ChE enzyme assay (Ellman), BChE. The conditions noted are these: mean ± SEM of triplicate experiments. In kind it is biochemical.
Excerpt: as §1
The inhibitory activity of the isolated coumarins toward ChE was measured using the spectrophotometric method developed by Ellman et al.. ACh and BCh were used as substrates to assay the inhibition of AChE and BChE, respectively. Each reaction mixture consisted of 140 µL sodium phosphate buffer (pH 8.0), 20 µL of test sample solution, and 20 µL of either AChE or BChE solution, which were then combined and incubated for 15 min at room temperature. […] Enzymatic hydrolysis, mediated by AChE or BChE, was monitored according to the formation of yellow 5-thio-2-nitrobenzoate anions at 412 nm for 15 min, which were generated by the reaction of DTNB with thiocholine released from ACh or BCh. All reactions were performed in 96-well plates in triplicate, and recorded using a microplate spectrophotometer (Molecular Devices, Sunnyvale, CA, USA).
In general terms: Ellman's reagent forms a yellow product with free thiols.

For test [4], the target named is T2, human recombinant BACE1. Briefly: Kinetics of BACE1 inhibition (Lineweaver–Burk and Dixon plots). The conditions noted are these: for BACE1 inhibition type: determined using Dixon and Lineweaver–Burk plots; for Ki: determined using a Dixon plot, substrate 750, 375, 250 nM, read-out: BACE1 inhibition constant (Ki). In kind it is biochemical. As to the method: Complementary kinetic methods were employed: Lineweaver–Burk and Dixon plots. The mechanism of BACE1 inhibition was evaluated by monitoring the effects of different concentrations of substrate (750, 375, and 250 nM). The test concentrations of 2 in BACE1 inhibition kinetic experiments were 0, 0.4, 2.0, and 10 µM, while those for 3 were 0, 25, 50, and 100 µM. Inhibition constants (Ki) were determined by interpreting the Dixon plot, where the value on the x-axis represents Ki.

Test [5] concerns ONOO−-mediated tyrosine nitration of BSA. The experiment in a line: Inhibition of ONOO−-mediated protein tyrosine nitration (Western blot, 3-nitrotyrosine antibody). In kind it is biochemical. The conditions noted are these: pretreatment at 12.5–100 μM. The method, then: To determine the inhibitory effect of 2 against ONOO^−-induced tyrosine nitration, Western blot analysis was performed using a 3-nitrotyrosine antibody.
Figure 5 Effect of 2 on nitration of BSA by ONOO^−. A mixture of the compound and BSA was incubated at 25 °C for 10 min. After incubation of ONOO^− at 25 °C for 10 min, reactants were resolved by electrophoresis in a 10% SDS-polyacrylamide gel.
We evaluated ONOO^−-mediated protein tyrosine nitration using the method of Ali et al., with slight modifications. The tested concentration range of 2 was 12.5–100 µM.

Setting [6] is: human recombinant BACE1, mean ± SEM of triplicate experiments, read-out: IC50 BACE1.

The text below walks through data of paper PMC6151429 (Molecules : A Journal of Synthetic Chemistry and Natural …, 2017).

Molecules are shown by their SMILES. “And” between values parts separate entries of the source, which are not always exact repeats. Equal entries are not always repeated. Where two headings read alike, the source gives them in different places. Some results are limits rather than exact numbers.

What is called IC50 is the concentration at which inhibition is half-maximal. As a reminder, the Ki is a dissociation constant, usually derived from enzyme kinetics or from competition with a known ligand.

T3 sequence (P81908 whole entry): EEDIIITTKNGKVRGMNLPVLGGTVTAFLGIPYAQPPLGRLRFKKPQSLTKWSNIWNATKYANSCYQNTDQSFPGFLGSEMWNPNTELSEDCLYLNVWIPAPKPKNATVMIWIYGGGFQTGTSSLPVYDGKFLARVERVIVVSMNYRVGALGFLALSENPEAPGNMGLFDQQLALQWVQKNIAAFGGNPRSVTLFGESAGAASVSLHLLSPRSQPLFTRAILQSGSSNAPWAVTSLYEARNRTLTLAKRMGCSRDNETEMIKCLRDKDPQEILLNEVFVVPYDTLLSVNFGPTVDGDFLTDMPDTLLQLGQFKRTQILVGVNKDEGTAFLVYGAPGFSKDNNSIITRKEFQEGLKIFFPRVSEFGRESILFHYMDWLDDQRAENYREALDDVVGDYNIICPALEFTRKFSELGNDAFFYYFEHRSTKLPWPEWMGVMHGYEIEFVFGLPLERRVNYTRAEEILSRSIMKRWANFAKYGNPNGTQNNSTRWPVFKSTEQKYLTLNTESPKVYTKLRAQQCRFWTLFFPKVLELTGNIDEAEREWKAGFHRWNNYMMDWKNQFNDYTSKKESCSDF
T2 sequence (P56817 46-501): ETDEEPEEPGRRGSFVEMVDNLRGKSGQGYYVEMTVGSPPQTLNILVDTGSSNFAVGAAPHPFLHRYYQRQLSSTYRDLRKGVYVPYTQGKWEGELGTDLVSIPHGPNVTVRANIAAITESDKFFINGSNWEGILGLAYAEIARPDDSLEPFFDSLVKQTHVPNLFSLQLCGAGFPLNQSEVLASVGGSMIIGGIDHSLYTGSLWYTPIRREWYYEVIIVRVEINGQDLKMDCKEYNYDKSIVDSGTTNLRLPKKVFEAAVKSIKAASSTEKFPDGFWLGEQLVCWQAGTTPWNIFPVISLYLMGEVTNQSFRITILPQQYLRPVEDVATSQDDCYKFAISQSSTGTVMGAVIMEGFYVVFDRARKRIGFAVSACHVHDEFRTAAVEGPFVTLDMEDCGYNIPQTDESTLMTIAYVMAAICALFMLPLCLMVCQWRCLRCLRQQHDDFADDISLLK
T1 sequence (O42275 24-633): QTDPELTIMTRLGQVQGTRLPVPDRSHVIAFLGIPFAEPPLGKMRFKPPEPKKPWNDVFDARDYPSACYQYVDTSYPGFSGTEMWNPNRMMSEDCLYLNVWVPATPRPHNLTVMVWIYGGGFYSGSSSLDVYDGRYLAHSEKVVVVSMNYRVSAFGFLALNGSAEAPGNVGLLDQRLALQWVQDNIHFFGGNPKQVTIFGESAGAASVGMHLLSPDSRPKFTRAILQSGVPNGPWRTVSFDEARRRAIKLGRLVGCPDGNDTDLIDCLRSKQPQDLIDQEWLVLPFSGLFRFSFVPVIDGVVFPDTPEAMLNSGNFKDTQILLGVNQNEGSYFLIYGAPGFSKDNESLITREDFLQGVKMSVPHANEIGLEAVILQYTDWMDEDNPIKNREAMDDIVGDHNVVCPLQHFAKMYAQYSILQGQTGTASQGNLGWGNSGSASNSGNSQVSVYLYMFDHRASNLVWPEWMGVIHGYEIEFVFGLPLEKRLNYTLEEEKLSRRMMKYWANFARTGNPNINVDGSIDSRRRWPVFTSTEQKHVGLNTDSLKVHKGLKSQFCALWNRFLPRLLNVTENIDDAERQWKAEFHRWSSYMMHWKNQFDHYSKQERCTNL

In test [1] (IC50 AChE), `COc1ccc2cc3[n+](cc2c1OC)CCc1cc2c(cc1-3)OCO2` [Berberine, berberine, reference compound] displayed a 50% inhibitory concentration (IC50) below 0.32 µM.
For the compound `O=c1ccc2ccc(O)cc2o1` [Compound 1, umbelliferone], the half-maximal inhibitory concentration (IC50) at human recombinant BACE1 [2] was 169 ± 2.17 µM.
For the compound `O=Cc1cc2ccc(=O)oc2cc1O` [Compound 2, 6-formyl umbelliferone], the “SI, selective index (BChE/AChE)” value in test [1] is given as 1.67. In addition, the concentration for half-maximal inhibition (IC50) was 16.7 to 19.1 µM and 16.7 µM in test [1] (read-out: IC50 AChE); 27.9 to 87.7 µM and 27.9 µM in test [3]; 1.31 ± 0.01 µM at human recombinant BACE1 [2] (setting [6]). Besides, the BACE1 inhibition type entry on human recombinant BACE1 [4] was “noncompetitive-type inhibition”. Besides, on human recombinant BACE1 [4], the Ki is 2.27 µM. Also, the “Inhibition of ONOO−-mediated tyrosine nitration” value in test [5] is “significant dose-dependent inhibition”.
For the compound `O=Cc1c(O)ccc2ccc(=O)oc12` [Compound 3, 8-formyl umbelliferone], the “SI, selective index (BChE/AChE)” value in test [1] is recorded as 4.58. For the same compound, the IC50 is 16.7 to 19.1 µM and 19.1 µM in test [1] (read-out: IC50 AChE); 27.9 to 87.7 µM and 87.7 µM in test [3]; 39.82 ± 0.31 µM on human recombinant BACE1 [2] (setting [6]). For the same compound, the BACE1 inhibition type result on human recombinant BACE1 [4] was “noncompetitive-type inhibition”. Further, the inhibitory constant (Ki) at human recombinant BACE1 [4] worked out at 22.2 µM.
